Measurements published in US6339045B1, “N-(unsubstituted or substituted)-4-substituted-6-(unsubstituted or substituted)phenoxy-2-pyridinecarboxamides or thiocarboxamides, processes for producing the same, and herbicides” (Kureha Kagaku Kogyo Kabushiki Kaisha, priority 1995, dated 2002).

Key:
Assay in all cases: Herbicidal effect by foliage and soil treatment
Format in all cases: in vivo
Settings in all cases: 10 g ai/10a, evaluated after 14 days
[1] = tested on: common chickweed (Stellaria media)
Source text: (§1) Experiment for Determination of Herbicidal Effect by Foliate and Soil Treatment Seeds of redroot pigweed (Amaranthus retroflexus), common blackjack (Bidens pilosa), kediock (Sinapis arvensis), common chickweed (Stellaria media), sicklepod (Cassia obtusifolia), black nightshade (Solanum nigrum), velvetleaf (Abutilon theophrasti), field bindweed (Convolvulus arvensis), wild chamomile (Matricaria chamomilla), cleavers (Galium aparine) and […] (Veronica hederaefolia), were uniformly sowed over a horticultural granular soil (produced by KUREHA CHEMICAL INDUSTRY, CO., LTD.; the same soil was used hereinafter) filled in a planter. The planter was placed in a greenhouse (maintained at 19 to 25° C.) to sprout these plants. Two seedlings of each sprouted plant were transplanted to a 10 cm-diameter pot filled with the horticultural granular soil and cultivated in the greenhouse (maintained at 19 to 25° C.) until reaching a cotyledonal to bifoliate period suited to the foliage and soil treatment. […] Next, additional amounts of Tween 20 and water were added to the obtained solution or suspension to produce a test solution. The plants prepared in the above (1) were placed within a frame having a predetermined inside area, and uniformly sprayed with the test solution using a sprayer such that the amount of each compound applied was controlled to a predetermined level. The plants sprayed with the test solution were placed again in the greenhouse (maintained at 19 to 25° C.) and cultivated therein. After 14 days, the degree of growth of each plant cultivated in the treated region was compared with that of plant cultivated in non-treated region, and evaluated according to the following ratings. The herbicidal activity of each test compound was represented by these ratings

[2] = tested on: velvetleaf (Abutilon theophrasti)
Source text: as §1

[3] = tested on: common blackjack (Bidens pilosa)
Source text: as §1

[4] = tested on: ivyleafspeedwell (Veronica hederaefolia)
Source text: as §1

[5] = tested on: cleavers (Galium aparine)
Source text: as §1

[6] = tested on: wild chamomile (Matricaria chamomilla)
Source text: as §1

[7] = tested on: black nightshade (Solanum nigrum)
Source text: as §1

[8] = tested on: sicklepod (Cassia obtusifolia)
Source text: as §1

[9] = tested on: kediock (Sinapis arvensis)
Source text: as §1

[10] = tested on: field bindweed (Convolvulus arvensis)
Source text: as §1

[11] = tested on: redroot pigweed (Amaranthus retroflexus)
Source text: as §1

| SMILES | herbicidal activity rating, SM (Stellaria media) [1] | herbicidal activity rating, AT (Abutilon theophrasti) [2] | herbicidal activity rating, BP (Bidens pilosa) [3] | herbicidal activity rating, VH (Veronica hederaefolia) [4] | herbicidal activity rating, GA (Galium aparine) [5] | herbicidal activity rating, MC (Matricaria chamomilla) [6] | herbicidal activity rating, SN (Solanum nigrum) [7] | herbicidal activity rating, CO (Cassia obtusifolia) [8] | herbicidal activity rating, SA (Sinapis arvensis) [9] | herbicidal activity rating, CA (Convolvulus arvensis) [10] | herbicidal activity rating, AR (Amaranthus retroflexus) [11] |
| --- | --- | --- | --- | --- | --- | --- | --- | --- | --- | --- | --- |
| C=CCNC(=O)c1cc(OC)cc(Oc2cccc(C(F)(F)F)c2)n1 [Compound I-42] | 5 (percentage of weeds killed was not less than 80%) | 4 (percentage of weeds killed was not less than 60% and less than 80%) | 3 (percentage of weeds killed was not less than 40% and less than 60%) | 5 (percentage of weeds killed was not less than 80%) | 5 (percentage of weeds killed was not less than 80%) | 4 (percentage of weeds killed was not less than 60% and less than 80%) | 5 (percentage of weeds killed was not less than 80%) | 5 (percentage of weeds killed was not less than 80%) | 5 (percentage of weeds killed was not less than 80%) | 4 (percentage of weeds killed was not less than 60% and less than 80%) | 5 (percentage of weeds killed was not less than 80%) |
| COc1cc(Oc2cccc(C(F)(F)F)c2)nc(C(=O)NC2CCCCC2)c1 [Compound I-43] | 5 (percentage of weeds killed was not less than 80%) | 4 (percentage of weeds killed was not less than 60% and less than 80%) | 4 (percentage of weeds killed was not less than 60% and less than 80%) | 5 (percentage of weeds killed was not less than 80%) | 5 (percentage of weeds killed was not less than 80%) | 4 (percentage of weeds killed was not less than 60% and less than 80%) | 5 (percentage of weeds killed was not less than 80%) | 5 (percentage of weeds killed was not less than 80%) | 5 (percentage of weeds killed was not less than 80%) | 5 (percentage of weeds killed was not less than 80%) | 5 (percentage of weeds killed was not less than 80%) |
| CCNC(=S)c1cc(OC)cc(Oc2cccc(C(F)(F)F)c2)n1 [Compound I-44] | 5 (percentage of weeds killed was not less than 80%) | 4 (percentage of weeds killed was not less than 60% and less than 80%) | 4 (percentage of weeds killed was not less than 60% and less than 80%) | 5 (percentage of weeds killed was not less than 80%) | 5 (percentage of weeds killed was not less than 80%) | 3 (percentage of weeds killed was not less than 40% and less than 60%) | 5 (percentage of weeds killed was not less than 80%) | 5 (percentage of weeds killed was not less than 80%) | 5 (percentage of weeds killed was not less than 80%) | 4 (percentage of weeds killed was not less than 60% and less than 80%) | 5 (percentage of weeds killed was not less than 80%) |
| COc1cc(Oc2cccc(C(F)(F)F)c2)nc(C(=O)NCc2ccccc2)c1 [Compound I-45, N-benzyl-4-methoxy-6-{3-(trifluoromethyl)phenoxy}-2-pyridine carboxamide] | 5 (percentage of weeds killed was not less than 80%) | 4 (percentage of weeds killed was not less than 60% and less than 80%) | 5 (percentage of weeds killed was not less than 80%) | 5 (percentage of weeds killed was not less than 80%) | 5 (percentage of weeds killed was not less than 80%) | 2 (percentage of weeds killed was not less than 20% and less than 40%) | 5 (percentage of weeds killed was not less than 80%) | 5 (percentage of weeds killed was not less than 80%) | 5 (percentage of weeds killed was not less than 80%) | 5 (percentage of weeds killed was not less than 80%) | 5 (percentage of weeds killed was not less than 80%) |
| CNC(=O)c1cc(OC)cc(Oc2cccc(C(F)(F)F)c2)n1 [Compound I-46] | 5 (percentage of weeds killed was not less than 80%) | 4 (percentage of weeds killed was not less than 60% and less than 80%) | 3 (percentage of weeds killed was not less than 40% and less than 60%) | 5 (percentage of weeds killed was not less than 80%) | 5 (percentage of weeds killed was not less than 80%) | 3 (percentage of weeds killed was not less than 40% and less than 60%) | 5 (percentage of weeds killed was not less than 80%) | 5 (percentage of weeds killed was not less than 80%) | 5 (percentage of weeds killed was not less than 80%) | 5 (percentage of weeds killed was not less than 80%) | 5 (percentage of weeds killed was not less than 80%) |
| CNC(=S)c1cc(OC)cc(Oc2cccc(C(F)(F)F)c2)n1 [Compound I-47] | 4 (percentage of weeds killed was not less than 60% and less than 80%) | 5 (percentage of weeds killed was not less than 80%) | 3 (percentage of weeds killed was not less than 40% and less than 60%) | 5 (percentage of weeds killed was not less than 80%) | 5 (percentage of weeds killed was not less than 80%) | 3 (percentage of weeds killed was not less than 40% and less than 60%) | 5 (percentage of weeds killed was not less than 80%) | 5 (percentage of weeds killed was not less than 80%) | 5 (percentage of weeds killed was not less than 80%) | 5 (percentage of weeds killed was not less than 80%) | 5 (percentage of weeds killed was not less than 80%) |
